Data on 39 compounds can be found in US20170037028A1 (BAYER PHARMA AKTIENGESELLSCHAFT, priority 2013, published 2017).

This assay has as its target T1, GLUT1 (Homo sapiens, UniProt P11166).
T1 sequence (P11166 1-492): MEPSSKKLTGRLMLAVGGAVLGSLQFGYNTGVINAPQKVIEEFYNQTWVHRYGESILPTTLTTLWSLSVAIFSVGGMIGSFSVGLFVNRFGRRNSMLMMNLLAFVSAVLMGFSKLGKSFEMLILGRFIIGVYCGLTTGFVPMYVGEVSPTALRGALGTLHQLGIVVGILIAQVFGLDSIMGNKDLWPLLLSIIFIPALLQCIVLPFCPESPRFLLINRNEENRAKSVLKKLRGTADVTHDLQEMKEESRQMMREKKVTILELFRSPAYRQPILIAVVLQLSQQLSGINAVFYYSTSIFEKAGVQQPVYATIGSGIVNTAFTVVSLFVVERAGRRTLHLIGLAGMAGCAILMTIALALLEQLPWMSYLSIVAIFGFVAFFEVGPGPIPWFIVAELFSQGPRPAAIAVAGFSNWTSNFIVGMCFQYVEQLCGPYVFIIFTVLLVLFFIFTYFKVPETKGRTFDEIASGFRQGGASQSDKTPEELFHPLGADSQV
In words: Indirect measurement of GLUT1 activity by quantification of intracellular ATP levels (glucose induced ATP increase). Particulars: read-out: IC50 regarding glucose induced ATP increase (GLUT1 inhibition). The class given is cell-based. More on the design: endogenous in cells; host or cells: DLD1 or CHO-K1. The gist of the method: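 DLD1 or CHO-K1 cells were starved overnight in glucose-free medium with 1% FCS, then combined with an oxidative phosphorylation inhibitor. GLUT1 activity was read as glucose-induced ATP increase, GLUT2 as fructose-induced. Intracellular ATP was quantified by CellTiter-Glo luminescence.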
On to `CCOC(=O)N=S(C)(=O)c1ccc(Cn2nc(C)c(NC(=O)c3cc(C(N)=O)nc4ccccc34)c2C)cc1` (racemic) [Example 376, (±)-ethyl [{4-[(4-{[(2-carbamoylquinolin-4-yl)carbonyl]amino}-3,5-dimethyl-1H-pyrazol-1-yl)methyl]phenyl}(methyl)oxido-λ^6-sulfanylidene]carbamate], for which the half-maximal inhibitory concentration (IC50) was 642 nM.

`Cc1nn(CCc2cccc(F)c2)c(C)c1NC(=O)c1cc(C(F)(F)F)nc2ccc(Br)cc12` [Example 1282]: the concentration for half-maximal inhibition (IC50) turned out to be 6020 nM.

Consider `Cc1c(NC(=O)c2cc(C(N)=O)nc3cc(F)ccc23)c(C(F)(F)F)nn1Cc1csc(C#N)n1` [Example 1674], for which the IC50 is 21 nM.

For `Cc1nn(Cc2ccc(C#N)s2)c(C)c1NC(=O)c1cc(C(N)=O)nc2cc(F)ccc12` [Example 422], the IC50 stood at 5 nM.

For `Cc1c(NC(=O)c2cc(C(N)=O)nc3cc(F)c(Cl)cc23)c(C(F)(F)F)nn1Cc1ccc(CC#N)cc1` [Example 1594], the IC50 was determined as 1.1 nM.

Take `Cc1nn(Cc2ccc(CC(=O)N3CCOCC3)cc2)c(C)c1NC(=O)c1cc(C(F)(F)F)nc2ccc(Br)cc12` [Example 158, 6-bromo-N-(3,5-dimethyl-1-{4-[2-(morpholin-4-yl)-2-oxoethyl]benzyl}-1H-pyrazol-4-yl)-2-(trifluoromethyl)quinoline-4-carboxamide]: the IC50 worked out at 521 nM.

For the compound `Cc1nn(Cc2ccc(C(=O)NCCN3CCOCC3)cc2)c(C)c1NC(=O)c1cc(C(F)(F)F)nc2ccc(Br)cc12` [Example 136, 6-bromo-N-[3,5-dimethyl-1-(4-{[2-(morpholin-4-yl)ethyl]carbamoyl}benzyl)-1H-pyrazol-4-yl]-2-(trifluoromethyl)quinoline-4-carboxamide], the IC50 worked out at 9 nM.

Turning to `Cc1nn(Cc2ccccc2C#N)c(C)c1NC(=O)c1cc(C(N)=O)nc2cc(F)ccc12` [Example 266, N^4-[1-(2-cyanobenzyl)-3,5-dimethyl-1H-pyrazol-4-yl]-7-fluoroquinoline-2,4-dicarboxamide], the IC50 was found to be 1 nM.

Consider `CCc1nn(Cc2ccc(C#N)cc2)c(C)c1NC(=O)c1cc(C(N)=O)nc2ccccc12` [Example 325, N^4-[1-(4-cyanobenzyl)-3-ethyl-5-methyl-1H-pyrazol-4-yl]quinoline-2,4-dicarboxamide], for which the IC50 is 3.9 nM.

Turning to `CCc1ccc(Cn2nc(C(F)(F)F)c(NC(=O)c3cc(C(N)=O)nc4ccccc34)c2C)cc1` [Example 1413], the IC50 was found to be 1.1 nM.

Turning to `COc1cccc(CNC(=O)c2ccc(Cn3nc(C)c(NC(=O)c4cc(C(F)(F)F)nc5ccc(Br)cc45)c3C)cc2)c1` [Example 1132], the IC50 amounted to 88.2 nM.

As for `Cc1c(NC(=O)c2cc(C(N)=O)nc3cccc(F)c23)c(C(F)(F)F)nn1Cc1ccc(C#N)cn1` [Example 363, N^4-{1-[(5-cyanopyridin-2-yl)methyl]-5-methyl-3-(trifluoromethyl)-1H-pyrazol-4-yl}-5-fluoroquinoline-2,4-dicarboxamide], the IC50 was found to be 6 nM.

Turning to `C=CCNC(=O)c1ccc(Cn2nc(C)c(NC(=O)c3cc(C(F)(F)F)nc4ccc(Br)cc34)c2C)cc1` [Example 1018], the IC50 was found to be 1.9 nM.

As for `Cc1nn(Cc2c(F)cc(C#N)cc2F)c(C)c1NC(=O)c1cc(C(N)=O)nc2ccc(Br)cc12` [Example 394, 6-bromo-N^4-[1-(4-cyano-2,6-difluorobenzyl)-3,5-dimethyl-1H-pyrazol-4-yl]quinoline-2,4-dicarboxamide], the IC50 was determined as 2.6 nM.

Consider `Cc1c(NC(=O)c2cc(C(N)=O)nc3cc(F)ccc23)c(C(F)(F)F)nn1Cc1ccc(C(=O)O)cc1` [Example 368, 4-{[4-{[(2-carbamoyl-7-fluoroquinolin-4-yl)carbonyl]amino}-5-methyl-3-(trifluoromethyl)-1H-pyrazol-1-yl]methyl}benzoic acid], for which the IC50 is 418 nM.

For `Cc1nn(Cc2ccc(F)cc2)c(C)c1NC(=O)c1cc(C#N)nc2ccccc12` [Example 78, 2-cyano-N-[1-(4-fluorobenzyl)-3,5-dimethyl-1H-pyrazol-4-yl]quinoline-4-carboxamide], the IC50 was determined as 223 nM.

Regarding `Cc1nc(Cn2nc(C)c(NC(=O)c3cc(C(F)(F)F)nc4ccc(Br)cc34)c2C)cs1` [Example 1354], the IC50 amounted to 48.9 nM.

Turning to `COCc1ccc(Cn2nc(C(F)(F)F)c(NC(=O)c3cc(C(N)=O)nc4cccc(F)c34)c2C)cc1` [Example 402, 5-fluoro-N^4-{1-[4-(methoxymethyl)benzyl]-5-methyl-3-(trifluoromethyl)-1H-pyrazol-4-yl}quinoline-2,4-dicarboxamide], the IC50 amounted to 6.7 nM.

Take `CCc1c(NC(=O)c2cc(C(N)=O)nc3ccccc23)c(C)nn1Cc1ccc(C#N)cc1` [Example 326, N^4-[1-(4-cyanobenzyl)-5-ethyl-3-methyl-1H-pyrazol-4-yl]quinoline-2,4-dicarboxamide]: the 50% inhibitory concentration (IC50) came to 14.3 nM.

Regarding `Cc1nn(Cc2ccc(F)cc2)c(C)c1NC(=O)c1cc(C2CC2)nc2ccc(Cl)cc12` [Example 125, 6-chloro-2-cyclopropyl-N-[1-(4-fluorobenzyl)-3,5-dimethyl-1H-pyrazol-4-yl]quinoline-4-carboxamide], the IC50 amounted to 2.5 nM.

For the compound `Cc1nn(CC2COc3ccccc3O2)c(C)c1NC(=O)c1cc(C(N)=O)nc2ccccc12` (stereo not drawn) [Example 1103], the IC50 was 44.7 nM.

For `Cc1nn(Cc2ccc(C(N)=O)cn2)c(C)c1NC(=O)c1cc(C(F)(F)F)nc2ccc(Br)cc12` [Example 1138], the IC50 is 102 nM.

Consider `Cc1nn(Cc2ccc(F)cc2)c(C)c1NC(=O)c1cc(C(F)(F)F)nc2cc(Cl)c(Cl)cc12` [Example 106, 6,7-dichloro-N-[1-(4-fluorobenzyl)-3,5-dimethyl-1H-pyrazol-4-yl]-2-(trifluoromethyl)quinoline-4-carboxamide], for which the half-maximal inhibitory concentration (IC50) was found to be 571 nM.

Consider `Cc1c(NC(=O)c2cc(C(N)=O)nc3ccc(N4CCN(C)CC4)cc23)c(C(F)(F)F)nn1Cc1ccc(C#N)cc1` [Example 1394], for which the IC50 amounted to 127 nM.

For the compound `Cc1c(NC(=O)c2cc(C(N)=O)nc3cc(F)c(F)cc23)c(C(F)(F)F)nn1Cc1ccc(C#N)cc1` [Example 216, N^4-[1-(4-cyanobenzyl)-5-methyl-3-(trifluoromethyl)-1H-pyrazol-4-yl]-6,7-difluoroquinoline-2,4-dicarboxamide], the IC50 came out at 2.1 nM.

Turning to `Cc1ccccc1Cn1nc(C)c(NC(=O)c2cc(C(F)(F)F)nc3c(Cl)cc(Cl)cc23)c1C` [Example 89, 6,8-dichloro-N-[3,5-dimethyl-1-(2-methylbenzyl)-1H-pyrazol-4-yl]-2-(trifluoromethyl)quinoline-4-carboxamide], the IC50 was found to be 281 nM.

With `Cc1nn(Cc2ccc(C(=O)NCc3ccccc3F)cc2)c(C)c1NC(=O)c1cc(C(F)(F)F)nc2ccc(Br)cc12` [Example 1149], the IC50 was determined as 126 nM.

For the compound `Cc1nn(Cc2ccc(F)cc2)c(C)c1NC(=O)c1ccnc2ccccc12` [Example 211, N-[1-(4-fluorobenzyl)-3,5-dimethyl-1H-pyrazol-4-yl]quinoline-4-carboxamide], the IC50 was determined as 957 nM.

Turning to `Cc1nn(Cc2ccc(C(=O)Nc3ccncc3)cc2)c(C)c1NC(=O)c1cc(C(F)(F)F)nc2ccc(Br)cc12` [Example 1173], the 50% inhibitory concentration (IC50) amounted to 198 nM.

Turning to `Cc1nn(Cc2ccccc2C#N)c(C)c1NC(=O)c1cc(C(C)C)nc2ccc(Br)cc12` [Example 118, 6-bromo-N-[1-(2-cyanobenzyl)-3,5-dimethyl-1H-pyrazol-4-yl]-2-(propan-2-yl)quinoline-4-carboxamide], the IC50 was 0.5 nM.

For `Cc1nn(CC(=O)Nc2ccc(F)cc2)c(C)c1NC(=O)c1cc(C(N)=O)nc2ccccc12` [Example 1692], the IC50 turned out to be 208 nM.

For the compound `Cc1nn(Cc2ccc(C(=O)Nc3ccc(N(C)C)cc3)cc2)c(C)c1NC(=O)c1cc(C(F)(F)F)nc2ccc(Br)cc12` [Example 1069], the IC50 was 19.8 nM.

Turning to `COc1cc(C(=O)Nc2c(C)nn(Cc3ccc(C(F)(F)F)cc3)c2C)c2ccccc2n1` [Example 1269], the IC50 is 2890 nM.

Take `Cc1ccc2nc(C)cc(C(=O)Nc3c(C)nn(Cc4ccc(F)c(Cl)c4)c3C)c2c1` [Example 186, N-[1-(3-chloro-4-fluorobenzyl)-3,5-dimethyl-1H-pyrazol-4-yl]-2,6-dimethylquinoline-4-carboxamide]: the IC50 is 126 nM.

In the case of `Cc1nn(Cc2ccc(C(=O)Nc3ccccc3)cn2)c(C)c1NC(=O)c1cc(C(F)(F)F)nc2ccc(Br)cc12` [Example 1041], the half-inhibitory concentration (IC50) amounted to 8.6 nM.

On to `Cc1c(NC(=O)c2cc(S(=O)(=O)N(C)C)nc3ccccc23)c(C(F)(F)F)nn1Cc1ccc(C#N)cc1` [Example 1576], for which the IC50 came to 20.6 nM.

For `C=Cc1ccc(Cn2nc(C)c(NC(=O)c3cc(OC)nc4ccccc34)c2C)cc1` [Example 1172], the half-maximal inhibitory concentration (IC50) was 198 nM.

For the compound `COc1ccc2nc(C(N)=O)cc(C(=O)Nc3c(C)nn(Cc4ccc(C#N)cc4)c3C)c2c1` [Example 258, N^4-[1-(4-cyanobenzyl)-3,5-dimethyl-1H-pyrazol-4-yl]-6-methoxyquinoline-2,4-dicarboxamide], the IC50 worked out at 1 nM.

Consider `Cc1nn(Cc2ccc(C(=O)NCCN(C)C)cn2)c(C)c1NC(=O)c1cc(C(F)(F)F)nc2ccc(Br)cc12` [Example 1292], for which the half-inhibitory concentration (IC50) amounted to 7380 nM.

For orientation: IC50 means the concentration at which inhibition is half-maximal.
